Laboratory results reported in patent publication US7232831B2, “Tetrahydro-β-carboline compounds and use thereof” (MediQuest Therapeutics, Inc., priority 2004, dated 2007).

Tested on: rats
Assay: Forced Swimming Test (Depression Test Model)
Type: in vivo
Settings: delivered orally before swim test, all three doses 0.3, 3 and 30 mg/kg, observed for 6 minutes
Source text: Forced Swimming Test (Depression Test Model)—Total immobility time of rats can be assessed during a forced swimming test Porsolt, R. D., Anton, G., Blavet, N., Jalfre, M. Behavioral despair in rats, a new model sensitive to antidepressant treatments. Eur. J Pharmacol. 1978, 47, 379-391. A shortened immobility period reflects anti-depressant-like effects of a test compound. MQT compounds were delivered orally to rats before the swim test.

| Compound | Total immobility time during forced swimming test |
| --- | --- |
| NCCCNC(=O)C1CCCN(C(=O)C2Cc3c([nH]c4ccccc34)CN2)C1 (centres unmarked) [MQT 1] | reduction in immobility |
| NCCCNCC1CCCN(CC2Cc3c([nH]c4ccccc34)CN2)C1 (centres unmarked) [MQT 2] | reduction in immobility |
